Test results taken from patent US12201628B2, “Neuronal modulation” (priority 2013, dated 2025).
Entries after “also recorded” stand apart in the source; their conditions may differ.

Legend:
[1] = system: IL-4 and IL-1β; experiment: Serum cytokine levels (RayBio antibody array, ELISA); type: in vivo, mice; conditions: 24 h after CNO; VTA-activated vs control
Experimental: VTA-activated and control mice were treated with CNO. Twenty four hours later, they were anaesthetized with ketamine/xylazine and their blood was collected by cardiac puncture. The blood was allowed to clot at room temperature for at least 30 minutes. Serum was collected by centrifuging the sample at 400 g for 10 min. The serum samples pooled from each experimental group (VTA-activated group and control group) were analyzed for cytokine and chemokine levels using the RayBio custom G-Series mouse cytokine antibody array kit (RayBiotech; Norcross, GA) according to manufacturer's instructions. The panel included: CD30 ligand, Eotaxin-1, Eotaxin-2, IFN-γ, IL-1α, IL-1β, IL-2, IL-3, IL-4, IL-6, IL-9, IL-10, IL-12 p40/p70, IL-12 p70, IL-13, IL-17A, MIP-1α, MIP-1γ, RANTES and TNFα. Murine IL-4 and IL-1β standard ELISA kits (PeproTech; Rocky Hill, NJ) were used as a quantitative validation of the IL-4 and IL-1β levels measured with the antibody array kit.

[2] = system: solid melanoma (B16) tumor and Lewis lung carcinoma (LLC); experiment: Tumor growth after VTA dopaminergic neuron activation; type: in vivo, mice
Experimental: For the expression of DREADDs, injected Cre-dependent adeno-associated virus (AAV) vector expressing DREADDs fused with red fluorescent protein mCherry, was injected into the VTA of tyrosine hydroxylase (TH)-Cre transgenic mice.
Then the mice were challenged with 500×10^3 LLC cells (Lewis Lung carcinoma Cells) or 200×10^3 B16 melanoma tumor cells (gently injected subcutaneously into the middle right flank of each animal).
28 days from the tumor cells injection a group of the tumor-bearing animals were euthanized to dissect the tumor tissue and check for metastasis (FIG. 12). The spleen bone marrow and tumors were isolated to characterize the changes in immune cells. The CyTOF was used to analyze the immune system as well as FACS analysis.

[3] = system: VTA dopaminergic neurons; experiment: Conditional place preference (CPP) paradigm; type: in vivo, mice; conditions: CNO 2.5 mg/kg
Experimental: All behavioral tests were conducted during the same circadian period. The conditional place preference (CPP) test was performed in a rectangular cage with two chambers (25 cm×25 cm each), with a corridor (5 cm×5 cm) connecting the two chambers. The chambers differed in their visual cues and were designed so that mice will have no bias for a particular chamber. The CPP paradigm consisted of four sessions over four days and was conducted 30 days after the viral stereotactic injection. On day 1, individual mice were placed in the connecting corridor (in the same direction) and allowed to freely explore the entire apparatus for 15 minutes (pre-test). On day 2, mice were IP injected with CNO (2.5 mg/kg, Sigma-Aldrich) diluted in sterile saline in order to activate the VTA dopaminergic neurons and then the mice were confined to one of the chambers for 30 min. On day 3, mice were confined to the other chamber for 30 min, 10 min after an injection of sterile saline. On day 4, mice were placed in the center chamber and allowed to freely explore the entire apparatus for 15 minutes (post-test). To calculate the level of preference, the relative time (%) the mouse spent during post-test in the conditioned chamber (the chamber where it received the CNO injection) was divided by the relative time (%) the mouse spent in this chamber during the pre-test (post/pre ratio). Of note, mice in both groups were injected with CNO to control for the potential effects of CNO. The analysis was performed automatically using EthoVision software.
Behavioral analysis (conditioned place preference; CPP): Three groups of mice were used in this experiment: mice injected with AAV virus encoding the hM3D (Gq), hM4D (Gi) or control carrying only mCherry. On day 1 the mice were given a chance to explore the apparatus for 5 minutes. […] At this stage the mice were only allowed access to one compartment of the apparatus and remains in the compartment for 30 minutes. Day 3: Mice were confounded to the other compartment. […] Time spent in each compartment was measured by motion detecting software (EthoVision). […]

[4] = system: GFP-expressing E. coli; experiment: In-vivo E. coli phagocytosis; design: species or system mice; conditions: E. coli injected 24 h after VTA activation, analysed 2 h later; vs controls
Experimental: Virus-injected mice were IP treated with CNO. Twenty four hours later, GFP-expressing E. coli (MG165K12; 8×10^8 CFU/mouse) were injected IP. After two hours, the peritoneal lymphocytes were collected by peritoneal lavage. For peritoneal lavage, the mice were sacrificed and their skin was cleaned with 70% ethanol. Then, 5 ml ice-cold PBS containing 1% fetal bovine serum were injected into the peritoneum, followed by gentle massage to allow distribution of the lavage fluid throughout the peritoneal cavity. The fluid was then collected using a 5 ml syringe attached to a 21-gauge needle, and cells were then washed twice in FACS staining buffer (PBS containing 1% bovine serum albumin and 0.05% sodium azide). In order to evaluate the degree of monocyte phagocytosis of the fluorescent bacteria, peritoneal lavage cells were stained with PerCP-conjugated anti-CD11b antibody (M1/70, Biolegend). All samples were analyzed on an LSRFortessa cell analyzer (BD Biosciences, NJ). […]
To determine the effects of VTA activation on antibacterial activity in vivo, the VTA-dopaminergic neurons were activated, and 24 h later injected the mice with GFP-expressing E. coli. Two hours later, lymphocytes were extracted from the peritoneal cavity of the mice and determined by flow cytometry GFP levels; only cells that phagocytized the E. coli could express GFP.

[5] = mice; cited from earlier work

Structure (SMILES): C[N+]1([O-])CCN(C2=Nc3cc(Cl)ccc3Nc3ccccc32)CC1 [CNO, clozapine-N-oxide]
- serum IL-1β level [1]: significantly reduced
- serum IL-4 level [1]: significantly reduced
- tumor weight / size (B16 melanoma) ([2]; CNO daily, two sessions of three days, Gq group vs control): Reduced tumor size
- reduction in tumor size ([2]; VTA-activated vs control mice, B16 melanoma and LLC): over 40%
- abundance of CD11b+Gr1+ MDSCs ([2]; VTA-activated vs control mice, spleen, bone marrow and tumor): significant reduction in the abundance; also recorded: reduced abundance of MDSCs
- preference for conditioned chamber (CPP) ([3]; Gi (hM4D) mice): avoided the conditioned chamber
- preference for conditioned chamber (CPP) ([3]; Gq (hM3D, VTA-activated) mice): exhibited a preference for the conditioned chamber; also recorded: increased preference to the conditioned chamber; also recorded: strong preference towards the chamber in which they were injected with CNO
- preference for conditioned chamber (CPP) ([3]; control mice (mCherry only virus)): no such bias; also recorded: did not show a clear preference to any single chamber
- number of CD11b+GFP+ cells in the peritoneum [4]: increased number of CD11b+GFP+ cells
- conversion of CNO to clozapine [5]: does not convert to clozapine
